The record followed here is US20050165080A1, “Method for the treatment of diseases requiring inhibition or a reduction in the activity of pH value-regulating bicarbonate transporter proteins” (Solvay Pharmaceuticals GmbH, priority 2002, published 2005).

The test system of assay [1] is Na+-independent chloride-bicarbonate (Cl−/HCO3−) exchanger (AE) protein. Briefly: Intracellular pH recovery after alkalization (NH4Cl pulse) in BCECF-laden adult cardiac fibroblasts. The format is cell-based, Wistar rats. The settings on record: for recovery after the intracellular alkalization, compared with guanabenz-pre-treated or non-pre-treated cells / percentage of the change in pH value still present, relative to the maximum alkaline pH value reached, after 5 min / percentage of the change in pH value still present, relative to the maximum alkaline pH value reached, after 8 min: 30 min preincubation; for recovery after the intracellular alkalization, compared with guanabenz-pre-treated or non-pre-treated cells: moxonidine 10^−6 to 10^−9 mole/liter, H2-DIDS 10^−3 mole/liter, NH4Cl pulse; for percentage of the change in pH value still present, relative to the maximum alkaline pH value reached, after 5 min / percentage of the change in pH value still present, relative to the maximum alkaline pH value reached, after 8 min: 10^−6 mole/liter, 5 mmole/liter NH4Cl pulse, cardiac fibroblasts, mean and standard deviation from 3 to 5 experiments; for percentage of the change in pH value still present, relative to the maximum alkaline pH value reached, after 5 min: 5 min after maximum alkaline pH; for percentage of the change in pH value still present, relative to the maximum alkaline pH value reached, after 8 min: 8 min after maximum alkaline pH. The procedure: (§1) The investigations were carried out on cardiac fibroblasts isolated from the left ventricle of the myocardium of 6-week-old Wistar rats. Myocardial tissue was placed in HBSS medium without Ca^2+ and Mg^2+ (GibcoBRL), cut into small pieces which were incubated with 1 mg/ml collagenase A (Roche) with continuous shaking for 10 minutes in HBSS medium. The first supernatant was discarded and the incubation operation was repeated three times, the supernatant being collected each time in a tube with 5 ml HBSS medium. After centrifuging at 160×g for 10 min, the pellet was re-suspended in a flask with DMEM (GibcoBRL), to which 10% foetal calf serum (FCS, from Sigma) was added. […] The flasks were incubated in an air-humidified incubator with 5% CO2 and at 37° C. Cardiac fibroblasts, which grew in a typical monolayer, were cultivated by standard cell culture techniques and at subconfluence were transferred into new flasks in a 1:3 ratio [Brilla et al. (1994) Collagen metabolism in cultured adult rat cardiac fibroblasts: response to agiotensin II and aldosterone. J. Mol. Cell Cardiol. 26: 809-820].
The intracellular pH value of an individual cell was measured using the fluorescent marker BCECF (2′,7′-bis-(2-carboxymethyl)-5-[and -6]-carboxyfluorescein from Molecular Probes), the fluorescent intensity of which is pH-dependent. The cardiac fibroblasts were grown on glass microscope slides until at subconfluence, and were then laden with BCECF-acetoxymethyl ester. The fibroblasts thus pre-treated were washed with PBS and then preincubated with various test solutions and then rinsed. In so doing, the intracellular fluorescence of the BCECF was measured using an inverted microscope, to which a “PTI 710 Photon Counting Detection” system (Photon Technology International) with two monochromators was connected. The data were analysed using a fluorescence spectrometer. The measurement results—fluorescence signals—were converted into pH values using a calibration curve.
Composition of the bicarbonate solution: 118 mmole/liter NaCl, 4.7 mmole/liter KCl, 2.5 mmole/liter CaCl2×2H2O, 1.6 mmole/liter MgCl2×7H2O, 24.9 mmole/liter NaHCO3, 1.2 mmole/liter KH2PO4, 5.6 mmole/liter glucose and either 0.4% or 10% FCS, equilibrated with 20% O2 and 5% CO2 for at least 30 minutes to ensure a pH value of 7.4.
The individual test solutions were based on the above bicarbonate solution and contained the following concentration of the compounds below: • 10^−6 mole/liter guanabenz (Sigma) • 10^−6 mole/liter to 10^−9 mole/liter moxonidine • 10^−3 mole/liter H2-DIDS (Molecular Probes) Intracellular alkalization of the cells was achieved by rinsing with a 5 mmole/liter NH4Cl-containing bicarbonate solution (NH4Cl pulse). Subsequent washing-out of the NH4Cl by rinsing the cells with fresh bicarbonate solution results in intracellular acidification.
The effect of moxonidine, DIDS and guanabenz on the change in the intracellular pH value after alkalization of the cells is determined by an NH4Cl pulse. To this end, the BCECF-laden cardiac fibroblasts were preincubated for 30 minutes with a bicarbonate test solution containing one of the above compounds. Then the response of the intracellular pH value of the cells thus pre-treated to a 5 mmole/liter NH4Cl pulse was measured over time. Also the change in pH value which took place during the subsequent washing-out of the NH4Cl (intracellular acidification) was further measured over time. […] To quantify the inhibitory effects, the percentage of the change in pH value still present relative to the maximum alkaline or maximum acidic pH value achieved was calculated.

Assay [2] relates to Na+/bicarbonate (Na+/HCO3−) cotransporter (NBC) protein or/and Na+-dependent chloride-bicarbonate (Cl−/HCO3−) exchanger (NDAE and N(D)CBE) protein. Briefly: Intracellular pH recovery after acidification (NH4Cl wash-out) in cardiac fibroblasts. The format is cell-based, Wistar rats. The settings on record: recovery from intracellular acidification. The procedure:
as §1, with “Cardiac fibroblasts, which grew in a typical monolayer, were cultivated by standard cell culture techniques and at subconfluence were transferred into new flasks in a 1:3 ratio [Brilla et al. (1994) Collagen metabolism in cultured adult rat cardiac fibroblasts: response to agiotensin II and aldosterone. J. Mol. Cell Cardiol. 26: 809-820].” left out
The intracellular pH value of an individual cell was measured using the fluorescent marker BCECF (2′,7′-bis-(2-carboxymethyl)-5-[and -6]-carboxyfluorescein from Molecular Probes), the fluorescent intensity of which is pH-dependent. […] In so doing, the intracellular fluorescence of the BCECF was measured using an inverted microscope, to which a “PTI 710 Photon Counting Detection” system (Photon Technology International) with two monochromators was connected. The data were analysed using a fluorescence spectrometer. The measurement results—fluorescence signals—were converted into pH values using a calibration curve. […]

Consider `O=S(=O)(O)c1cc(N=C=S)ccc1C=Cc1ccc(N=C=S)cc1S(=O)(=O)O` [DIDS, 4,4′-diisothiocyanostilbene-4,4′-disulfonate], for which the “recovery after the intracellular alkalization, compared with guanabenz-pre-treated or non-pre-treated cells” value in assay [1] is listed as “considerably longer recovery”.
In the case of `N=C(N)N/N=C/c1c(Cl)cccc1Cl` [Guanabenz], in assay [1], the “percentage of the change in pH value still present, relative to the maximum alkaline pH value reached, after 5 min” value was found to be 20.6 ± 5.2% and the “percentage of the change in pH value still present, relative to the maximum alkaline pH value reached, after 8 min” value is 9.9 ± 2.7%.
Regarding `COc1nc(C)nc(Cl)c1NC1=NCCN1` [Moxonidine, 4-chloro-5-[(4,5-dihydro-1H-imidazol-2-yl)-amino]-6-methoxy-2-methylpyrimidine], in assay [1], the “percentage of the change in pH value still present, relative to the maximum alkaline pH value reached, after 5 min” value turned out to be 58.8 ± 12.0%; the “percentage of the change in pH value still present, relative to the maximum alkaline pH value reached, after 8 min” value is 41.9 ± 24.4%; the “recovery after the intracellular alkalization, compared with guanabenz-pre-treated or non-pre-treated cells” value is recorded as “considerably longer recovery”. Besides, in assay [1] (concentration of 10^−8 mole/liter), the “inhibitory effect on the recovery from the alkaline pH (dose-effect curve)” value was “significantly inhibitory action”. In addition, the “inhibition of NBC or/and NDAE and N(D)CBE proteins (result in words)” value in assay [2] is given as “selective inhibitor”.
